Structures are written as SMILES. Structures can show the parent of a compound that is named as a salt.

Assay [1] has as its system full length SMN2 minigene mRNA (HEK293H cells stably transfected with the SMN2-A minigene construct). The assay is described as follows: RT-qPCR assay for SMN2 minigene pre-mRNA splicing in cultured cells. Type of assay: cell-based. As to conditions: Homo sapiens, HEK293-H, 24 hours, 7-point concentration curve, concentration giving 1.5-fold FL SMN2mini mRNA vs vehicle, read-out: EC1.5x minigene (EC1.5x concentration for production of full length SMN2 minigene mRNA). In short, it runs like this: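 HEK293H cells stably carrying SMN2-A minigene were treated 24 h at 37 °C with a 7-point, 3.16-fold compound series, in duplicate. Minigene-specific exon 7–exon 8 mRNA measured by multiplex RT-qPCR with GAPDH normalisation; fold over vehicle by modified ΔΔCt, reported as EC1.5×.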
Background: In qPCR the cycle at which signal appears reflects the starting amount.

The test system of assay [2] is SMN protein in SMA patient fibroblast cells (GM03813). The assay is described as follows: SMN protein assay (HTRF) in cultured cells. In kind it is cell-based. As to conditions: Homo sapiens, SMA Type 1 patient fibroblasts, 48 hours; for EC (1.5-fold): 7-point concentration curve, concentration giving 1.5 times SMN protein vs vehicle, read-out: EC1.5x SMN protein (EC1.5x concentration for SMN protein expression); for maximal fold induction: fold increase relative to vehicle control, read-out: Max. fold increase of SMN protein. In short, it runs like this: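 SMA patient fibroblasts (5,000 cells/well, DMEM-10% FBS) treated 48 h at 37 °C with 7-point, 3.16-fold dilutions, in triplicate. Lysates (RIPA) read overnight by HTRF with anti-SMN d2/cryptate at 665/620 nm. ΔF versus blank gives fold increase over vehicle, from which EC1.5× and maximum fold increase are derived.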
For orientation: In TR-FRET formats the signal depends on donor and acceptor labels being close together.

Consider `Cc1cn2cc(NC(=O)c3ccc(N4CCN5CCC[C@H]5C4)cc3F)nc(C3CC3)c2n1` [Example 17, 4-[(8aS)-3,4,6,7,8,8a-hexahydro-1H-pyrrolo[1,2-a]pyrazin-2-yl]-N-(8-cyclopropyl-2-methylimidazo[1,2-a]pyrazin-6-yl)-2-fluorobenzamide], for which the EC (1.5-fold) in assay [1] was 0.0338 µM. Besides, in assay [2], the EC (1.5-fold) amounted to 1.7 µM and the maximal fold induction was 1.51.
Regarding `Cc1cn2cc(NC(=O)c3ccc(N4CCN[C@H](C)C4)cc3F)ncc2n1` [Example 25, 2-fluoro-N-(2-methylimidazo[1,2-a]pyrazin-6-yl)-4-[(3R)-3-methylpiperazin-1-yl]benzamide hydrochloride], the EC (1.5-fold) in assay [1] worked out at 0.0146 µM; in assay [2], 0.123 µM. Moreover, the maximal fold induction in assay [2] was determined as 1.88.
The corresponding values for `Cc1cn2cc(NC(=O)c3ccc(N4CCNC(C)C4)c(F)c3F)ncc2n1` (stereo not drawn) [Example 30, 2,3-difluoro-N-(2-methylimidazo[1,2-a]pyrazin-6-yl)-4-(3-methylpiperazin-1-yl)benzamide hydrochloride] are 0.165 µM, 0.603 µM and 1.82.
For `Cc1cn2cc(NC(=O)c3ccc(N4CCNCC4)cc3F)ncc2n1` [Example 1, 2-fluoro-N-(2-methylimidazo[1,2-a]pyrazin-6-yl)-4-piperazin-1-ylbenzamide hydrochloride], the EC (1.5-fold) came out at 0.0374 µM in assay [1] and 0.087 µM in assay [2]. For the same compound, the maximal fold induction in assay [2] was found to be 1.9.
For `Cc1cn2cc(NC(=O)c3ccc(N4C[C@@H](C)N[C@@H](C)C4)cc3F)ncc2n1` [Example 27, 4-[(3S,5R)-3,5-dimethylpiperazin-1-yl]-2-fluoro-N-(2-methylimidazo[1,2-a]pyrazin-6-yl)benzamide], in that order: 0.0167 µM, 1.52 µM and 1.85.
The corresponding values for `CCc1nc(NC(=O)c2ccc(N3CCN4CCC[C@H]4C3)cc2F)cn2cc(C)nc12` [Example 16, 4-[(8aS)-3,4,6,7,8,8a-hexahydro-1H-pyrrolo[1,2-a]pyrazin-2-yl]-N-(8-ethyl-2-methylimidazo[1,2-a]pyrazin-6-yl)-2-fluorobenzamide] are 0.0314 µM, 0.237 µM and 1.72.
In the case of `CC[C@@H]1CN(c2ccc(C(=O)Nc3cn4cc(C)nc4cn3)c(F)c2)CCN1` [Example 32, 4-[(3R)-3-ethylpiperazin-1-yl]-2-fluoro-N-(2-methylimidazo[1,2-a]pyrazin-6-yl)benzamide hydrochloride], the EC (1.5-fold) in assay [1] stood at 0.0268 µM. Also, in assay [2], the EC (1.5-fold) was found to be 0.126 µM and the maximal fold induction is 1.81.
For `Cc1cn2cc(NC(=O)c3ccc(N4CC[C@H](N5CCCC5)C4)cc3F)ncc2n1` [Example 24, 2-fluoro-N-(2-methylimidazo[1,2-a]pyrazin-6-yl)-4-[(3S)-3-pyrrolidin-1-ylpyrrolidin-1-yl]benzamide], the EC (1.5-fold) in assay [1] turned out to be 0.051 µM; in assay [2] it was 0.113 µM. In assay [2], the maximal fold induction was 1.75.
Turning to `Cc1cn2cc(NC(=O)c3ccc(N4CC[C@@H](N5CCCC5)C4)cc3F)ncc2n1` [Example 33, 2-fluoro-N-(2-methylimidazo[1,2-a]pyrazin-6-yl)-4-[(3R)-3-pyrrolidin-1-ylpyrrolidin-1-yl]benzamide], the EC (1.5-fold) in assay [1] is 0.0222 µM. In assay [2], the EC (1.5-fold) was found to be 0.122 µM and the maximal fold induction worked out at 1.78.
The corresponding values for `Cc1cn2cc(NC(=O)c3c(F)cc(N4CCNCC4)cc3Cl)ncc2n1` [Example 28, 2-chloro-6-fluoro-N-(2-methylimidazo[1,2-a]pyrazin-6-yl)-4-piperazin-1-ylbenzamide hydrochloride] are 2.03 µM, 8.76 µM and 1.65.
For `CC[C@H]1CN(c2ccc(C(=O)Nc3cn4cc(C)nc4cn3)c(F)c2)CCN1` [Example 42, 4-[(3S)-3-ethylpiperazin-1-yl]-2-fluoro-N-(2-methylimidazo[1,2-a]pyrazin-6-yl)benzamide hydrochloride], in that order: 0.0144 µM, 0.231 µM and 1.72.
The corresponding values for `CCOc1cc(N2CCN3CCC[C@@H]3C2)ccc1C(=O)Nc1cn2cc(C)nc2cn1` [Example 6, 4-[(8aR)-3,4,6,7,8,8a-hexahydro-1H-pyrrolo[1,2-a]pyrazin-2-yl]-2-ethoxy-N-(2-methylimidazo[1,2-a]pyrazin-6-yl)benzamide] are 0.101 µM, 0.428 µM and 1.71.

These data come from patent US9975900B2, “Substituted imidazo[1,2-α]pyrazines for treating spinal muscular atrophy” (Hoffmann-La Roche Inc., priority 2014, dated 2018).
